PMC10253445, “Exploring the Potential of Sulfonamide-Dihydropyridine Hybrids as Multitargeted Ligands for Alzheimer’s Disease Treatment” (International Journal of Molecular Sciences, 2023)
Where “and” joins values, the source holds several entries; their conditions need not be identical. Identical values can stand only once. Entries after “also recorded” stand apart in the source; their conditions may differ.

What was measured:
EeAChE = molecular target: T1, EeAChE (Electrophorus electricus, UniProt O42275); assay: biochemical; conditions: for inhibition at 10 µM: read-out: EeAChE % inhibition at 10 μM (IC50 not given)
T1 construct: purified AChE from Electrophorus; purchased Sigma-Aldrich Type V-S; host or cells: natural enzyme purified from Electrophorus electricus

eqBChE = molecular target: T2, eqBChE (Equus caballus, UniProt P81908); assay: biochemical; format: biochemical; conditions: for IC50: read-out: eqBChE IC50 ± SEM; for inhibition at 10 µM: read-out: eqBChE % inhibition at 10 μM (IC50 not given)
T2 construct: BuChE from horse serum; purchased Sigma-Aldrich; host or cells: horse serum

calcium channel = assay: Calcium channel blockade, FLIPR calcium indicator 6 in SH-SY5Y cells; format: cell-based; conditions: KCl/CaCl2-induced calcium flux
Description: Assessment of calcium channel blockade of compounds 4a–i was performed according to the previously described protocol using the FLIPR calcium indicator 6 [59]. Briefly, FLIPR-loaded SH-SY5Y cells were exposed for 10 min to a 10 μm concentration of the tested compounds and to nimodipine used as a reference. 0.1% DMSO was used as a vehicle. […] Data were collected in three independent experiments with eight technical replicates per experiment. Outliers detected by the Grubbs test were excluded from further analysis.

Nrf2-ARE [1] = assay: Nrf2 transcriptional activation, Nrf2/ARE-luciferase reporter cells; format: cell-based; conditions: for CD (concentration required to double the specific luciferase reporter activity): 24 h treatment; for lowest concentration with significant induction of the Nrf2 transcriptional pathway: tested at 1, 5, 10, 25, 50 μM for 24 h
Description: The Nrf2-ARE activating effect of selected 4a, 4d and 4f was evaluated in vitro using a cell-based luciferase assay in the AREc32 cell line, tert-butylhydroquinone (TBHQ) being used as positive control.
Then, AREc32 cells were treated with increasing concentrations of each compound (1, 5, 10, 25, 50 μM) for 24 h, and luciferase activity was then measured.
The evaluation of Nrf2 transcriptional activation was then performed using non-cytotoxic concentrations of the tested compounds according to the protocol previously described. Briefly, the cells were seeded as described for the MTT assay, except that white 96-well culture plates were used. After 48 h of incubation, the cells were treated with the tested compounds or DMSO (0.1%). After 24 h of treatment, luciferase activity was measured using the Bright–Glo Luciferase Assay System (Promega, Madison, WI, USA) according to the manufacturer’s instructions. All reactions were performed in duplicate and repeated in at least four different cultures.

[2] = Oxygen radical absorbance capacity (ORAC) assay; conditions: Trolox Equivalents, mean (n = 3) ± SEM
Description: Briefly, in a black 96-well microplate (Nunc), fluorescein and the tested compound were incubated for 15 min at 37 °C. […] All reactions were performed in triplicate, and at least three different assays were performed for each sample.

Nrf2-ARE [3] = tested on: Nrf2-ARE; design: method as in PMID 27736061; conditions: cited from earlier work

T2 sequence (P81908 whole entry): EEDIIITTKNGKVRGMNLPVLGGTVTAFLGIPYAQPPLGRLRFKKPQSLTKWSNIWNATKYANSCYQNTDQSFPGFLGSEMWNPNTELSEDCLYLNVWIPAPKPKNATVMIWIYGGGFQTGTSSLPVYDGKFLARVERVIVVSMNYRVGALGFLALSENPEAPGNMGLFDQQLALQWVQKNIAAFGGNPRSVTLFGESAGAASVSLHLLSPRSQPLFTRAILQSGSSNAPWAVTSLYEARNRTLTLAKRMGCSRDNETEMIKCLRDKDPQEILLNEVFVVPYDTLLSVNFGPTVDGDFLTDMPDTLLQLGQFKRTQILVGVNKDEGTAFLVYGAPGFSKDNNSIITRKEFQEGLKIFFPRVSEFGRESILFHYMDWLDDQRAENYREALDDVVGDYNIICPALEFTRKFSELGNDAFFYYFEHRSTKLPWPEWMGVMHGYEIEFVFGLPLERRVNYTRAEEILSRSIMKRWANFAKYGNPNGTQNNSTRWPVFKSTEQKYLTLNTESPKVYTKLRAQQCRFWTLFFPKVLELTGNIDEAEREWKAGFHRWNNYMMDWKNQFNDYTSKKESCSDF
T1 sequence (O42275 24-633): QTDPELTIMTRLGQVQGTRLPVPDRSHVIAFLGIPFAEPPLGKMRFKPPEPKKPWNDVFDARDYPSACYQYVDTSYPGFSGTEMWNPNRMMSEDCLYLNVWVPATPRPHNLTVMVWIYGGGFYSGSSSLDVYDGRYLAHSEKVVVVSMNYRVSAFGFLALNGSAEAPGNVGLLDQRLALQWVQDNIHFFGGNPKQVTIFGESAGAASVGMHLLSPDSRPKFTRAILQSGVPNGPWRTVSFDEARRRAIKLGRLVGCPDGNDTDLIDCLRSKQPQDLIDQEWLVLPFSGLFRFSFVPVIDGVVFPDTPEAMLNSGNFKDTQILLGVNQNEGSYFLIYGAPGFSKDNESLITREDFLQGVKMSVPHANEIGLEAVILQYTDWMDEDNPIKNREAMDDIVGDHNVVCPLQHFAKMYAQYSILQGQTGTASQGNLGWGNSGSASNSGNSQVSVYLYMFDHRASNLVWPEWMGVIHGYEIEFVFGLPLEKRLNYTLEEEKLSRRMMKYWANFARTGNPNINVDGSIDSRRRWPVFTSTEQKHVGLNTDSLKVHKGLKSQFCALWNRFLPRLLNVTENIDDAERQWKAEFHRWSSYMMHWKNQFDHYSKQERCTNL

SMILES | inhibition at 10 µM (EeAChE) [%] | Calcium Antagonism (% Inhibition at 10 μM) ± SEM (calcium channel) [%] | CD (concentration required to double the specific luciferase reporter activity) (Nrf2-ARE [1]) | ORAC [2] | inhibition at 10 µM (eqBChE) [%] | other results
COC(=O)C1=C(C)NC(C)=C(C(=O)OC)C1c1ccc(NS(=O)(=O)c2ccccc2)cc1 [Compound 4a, Dimethyl 2,6-Dimethyl-4-(4-(phenylsulfonamido)phenyl)-1,4-dihydropyridine-3,5-dicarboxylate] | < 50 | 32 ± 5.1 | 19.3 µM and 19.3 ± 6.7 µM | 1.59 TE and 1.59 ± 0.2 TE |  | selectivity AChE vs BChE (eqBChE): totally selective to BChE; also recorded: fully selective inhibition of BChE; IC50 (eqBChE): 5 ± 0.4 µM; lowest concentration with significant induction of the Nrf2 transcriptional pathway (Nrf2-ARE [1]): 25 µM
COC(=O)C1=C(C)NC(C)=C(C(=O)OC)C1c1ccc(NS(=O)(=O)c2ccc(C)cc2)cc1 [Compound 4b, Dimethyl 2,6-Dimethyl-4-(4-((4-methylphenyl)sulfonamido)phenyl)-1,4-dihydropyridine-3,5-dicarboxylate] | < 50 | 37 ± 5.1 |  | 1.96 ± 0.1 TE | < 50 | 
COC(=O)C1=C(C)NC(C)=C(C(=O)OC)C1c1ccc(NS(C)(=O)=O)cc1 [Compound 4c, Dimethyl 2,6-Dimethyl-4-(4-(methylsulfonamido)phenyl)-1,4-dihydropyridine-3,5-dicarboxylate] | < 50 |  |  | 3.01 TE and 3.01 ± 0.1 TE | < 50 | 
CCOC(=O)C1=C(C)NC(C)=C(C(=O)OCC)C1c1ccc(NS(=O)(=O)c2ccccc2)cc1 [Compound 4d, Diethyl 2,6-Dimethyl-4-(4-(phenylsulfonamido)phenyl)-1,4-dihydropyridine-3,5-dicarboxylate] | < 50 | 22 ± 4.7 | >50 µM | 1.67 TE and 1.67 ± 0.0 TE |  | fold less active than tacrine on eqBChE (eqBChE): 135 fold; selectivity AChE vs BChE (eqBChE): totally selective to BChE; also recorded: fully selective inhibition of BChE; IC50 (eqBChE): 0.3 ± 0.1 µM; Nrf2 transcriptional activation (luciferase activity) (Nrf2-ARE [1]; 1-50 μM, 24 h): no significant activity
CCOC(=O)C1=C(C)NC(C)=C(C(=O)OCC)C1c1ccc(NS(=O)(=O)c2ccc(C)cc2)cc1 [Compound 4e, Diethyl 2,6-Dimethyl-4-(4-((4-methylphenyl)sulfonamido)phenyl)-1,4-dihydropyridine-3,5-dicarboxylate] | < 50 | 26 ± 4.1 |  | 2.07 ± 0.3 TE | < 50 | 
CCOC(=O)C1=C(C)NC(C)=C(C(=O)OCC)C1c1ccc(NS(C)(=O)=O)cc1 [Compound 4f, Diethyl 2,6-Dimethyl-4-(4-(methylsulfonamido)phenyl)-1,4-dihydropyridine-3,5-dicarboxylate] |  | 27 ± 3.5 | 44.3 µM and 44.3 ± 4.7 µM | 1.30 TE and 1.30 ± 0.1 TE |  | IC50 (EeAChE; read-out: EeAChE IC50 ± SEM): 12.6 ± 1.2 µM; IC50 (eqBChE): 8.7 ± 0.6 µM; lowest concentration with significant induction of the Nrf2 transcriptional pathway (Nrf2-ARE [1]): 50 µM
CC1=C(C(=O)OC(C)C)C(c2ccc(NS(=O)(=O)c3ccccc3)cc2)C(C(=O)OC(C)C)=C(C)N1 [Compound 4g, Diisopropyl 2,6-Dimethyl-4-(4-(phenylsulfonamido)phenyl)-1,4-dihydropyridine-3,5-dicarboxylate] | < 50 | 50 ± 4.1 |  | 0.86 TE and 0.86 ± 0.1 TE | < 50 | 
CC1=C(C(=O)OC(C)C)C(c2ccc(NS(=O)(=O)c3ccc(C)cc3)cc2)C(C(=O)OC(C)C)=C(C)N1 [Compound 4h, Diisopropyl 2,6-Dimethyl-4-(4-((4-methylphenyl)sulfonamido)phenyl)-1,4-dihydropyridine-3,5-dicarboxylate] | < 50 | 51 ± 5.3 |  | 1.59 ± 0.1 TE | < 50 | 
CC1=C(C(=O)OC(C)C)C(c2ccc(NS(C)(=O)=O)cc2)C(C(=O)OC(C)C)=C(C)N1 [Compound 4i, Diisopropyl 2,6-Dimethyl-4-(4-(methylsulfonamido)phenyl)-1,4-dihydropyridine-3,5-dicarboxylate] | < 50 | 25 ± 5.1 |  | 1.11 ± 0.3 TE | < 50 | 
CC(C)(C)c1cc(O)ccc1O [TBHQ, tert-butylhydroquinone, reference compound] |  |  | 1.2 µM and 1.2 ± 0.2 µM |  |  | 
COc1ccc2[nH]cc(CCNC(C)=O)c2c1 [melatonin] |  |  |  |  |  | CD (Nrf2-ARE [3]): 60 µM
COCCOC(=O)C1=C(C)NC(C)=C(C(=O)OC(C)C)C1c1cccc([N+](=O)[O-])c1 (centres unmarked) [nimodipine, reference compound] |  | 52 ± 4.1 |  |  |  | 
